Assay results from PubChem BioAssay (NCI).
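GI50 = concentration required for 50% inhibition of growth. TGI is the concentration that stops growth completely.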

Key:
Assay in all cases: inhibition of tumour cell growth, NCI panel, 384-well format
CCRF-CEM leukemia = test system: CCRF-CEM leukemia
HCC-2998 colon = test system: HCC-2998 colon
HS 578T breast = test system: HS 578T breast
KM12 colon = test system: KM12 colon
LOX IMVI melanoma = test system: LOX IMVI melanoma
NCI-H23 lung = test system: NCI-H23 lung
NCI/ADR-RES ovarian = test system: NCI/ADR-RES ovarian
RXF 393 renal = test system: RXF 393 renal
SF-295 CNS = test system: SF-295 CNS
SK-MEL-2 melanoma = test system: SK-MEL-2 melanoma
SNB-19 CNS = test system: SNB-19 CNS
UO-31 renal = test system: UO-31 renal

Work on NC(=O)[C@@H](CC1CC1)[C@@H](CCC(F)(F)F)C(=O)N[C@H]1N=C(c2ccccc2)c2cccc(F)c2NC1=O yielded a GI50 (CCRF-CEM leukemia) of 9.79 µM, a TGI (CCRF-CEM leukemia) greater than 64.3 µM and a GI50 (HCC-2998 colon) of 23.8 µM. The TGI (HCC-2998 colon) was 84.3 µM, the GI50 (HS 578T breast) was 11.3 µM and the TGI (HS 578T breast) was 25.5 µM. The GI50 (KM12 colon) was greater than 51.9 µM, the TGI (KM12 colon) was greater than 100 µM and the GI50 (LOX IMVI melanoma) was 11.7 µM. It also gave a TGI (LOX IMVI melanoma) of 38.4 µM, a GI50 (NCI-H23 lung) of 9.77 µM and a TGI (NCI-H23 lung) of 30 µM. The GI50 (NCI/ADR-RES ovarian) was greater than 86.4 µM, the TGI (NCI/ADR-RES ovarian) was greater than 100 µM and the GI50 (RXF 393 renal) was 7.3 µM. It also gave a TGI (RXF 393 renal) of 22.6 µM, a GI50 (SF-295 CNS) of 17.8 µM and a TGI (SF-295 CNS) of 37.2 µM. For the same compound, the GI50 (SK-MEL-2 melanoma) was 19.7 µM, the TGI (SK-MEL-2 melanoma) was 35.2 µM and the GI50 (SNB-19 CNS) was 14.7 µM. It also gave a TGI (SNB-19 CNS) of 28.9 µM, a GI50 (UO-31 renal) of 17.6 µM and a TGI (UO-31 renal) of 69.1 µM.
